PubChem BioAssay AID488890 (Southern Research Specialized Biocontainment Screening …, 2010)
pIC50: −log10 of the molar value. Inconclusive results are not listed. Calls of active or inactive are those of the source. No rule for the calls is given here.

Tested on: Mycobacterium tuberculosis non-replicating, growth inhibition
Experiment: growth inhibition of non-replicating M. tuberculosis (AID 488890)

Structure (SMILES) | pIC50 | IC50
O=C(Nc1nnc(C2COc3ccccc3O2)o1)c1ccc(F)cc1 (configuration not stated) | 5.15 | –
O=C(Nc1nnc(C2=COCCO2)o1)c1ccc(F)cc1 | – | 15.9 µM (inactive)
COc1ccc(C2=Nc3ccccc3OC2)cc1 | 5.28 | –
CSC1=N/C(=C\c2ccc3c(c2)OCO3)C(=O)S1 | 5.31 | –
CCc1ccc(N2CCN(CCNC(=O)Nc3ccc(OC)cc3)CC2)cc1 | – | 17.7 µM (inactive)
C/C(=N/NC(=O)c1cc2ccccc2cc1O)C1C(=O)c2ccccc2C1=O | 5.91 | –
O=C(OCc1nnc(-c2ccccc2)o1)c1ccc(Br)o1 | 5.04 | –
O=C(Cn1cc([N+](=O)[O-])nc1[N+](=O)[O-])N1CCN(c2ccccc2)CC1 | – | 12.8 µM (inactive)
COc1ccc(NC(=O)Nc2ccc(O)c3ccccc23)cc1 | 5.43 | –
CCCCCOc1ccc(Br)cc1/C(C)=N/NC1=NCCN1 | 5.12 | –
Cc1cccc(N2CCN(Cc3ccc([N+](=O)[O-])o3)CC2)c1C | 5.70 | –
CC1CCCC(NCC(O)COC(c2ccc(F)cc2)c2ccc(F)cc2)C1C (configuration not stated) | 5.24 | –
O=C(Nc1nccs1)c1ccc2ccccc2c1 | – | 13.8 µM (inactive)
CC(C)c1ccc(N2C(=O)CC(Sc3ncn[nH]3)C2=O)cc1 (configuration not stated) | – | 11.2 µM (inactive)
O=[N+]([O-])c1ccc(CN2CCN(c3ccccc3)CC2)o1 | 6.19 | –
O=C(COc1cccc2ccccc12)Nc1nc2ccccc2[nH]1 | 5.27 | –
COc1ccc2cc(C(=O)C3CCCN(Cc4cccc(C)n4)C3)ccc2c1 (configuration not stated) | 5.09 | –
CC(C)c1nnc(NC(=O)c2cc3cc(Br)ccc3oc2=O)s1 | 5.36 | –
COc1ccc(C(=O)COC(=O)COc2ccc(C)c(C)c2)cc1 | – | 20.7 µM (inactive)
O=C(N/N=C/c1ccccn1)c1cccc(S(=O)(=O)Nc2ccccc2Cl)c1 | – | 15.1 µM (inactive)
Clc1ccc(SCCCCn2ccnc2)cc1 | 5.31 | –

Structure (SMILES) | pIC50 | IC50
CN(C)CCOc1nc(-c2ccccc2)nc2c1oc1ccccc12 | – | 14.3 µM (inactive)
COC(=O)c1ccc(OCC(=O)c2cccc(OC)c2)cc1 | – | 11 µM (inactive)
COCCSc1nnc(NC(=O)CCS(=O)(=O)Cc2ccccc2)s1 | 5.29 | –
O=C(Nc1nccs1)c1ccc(-c2ccc(Cl)cc2)o1 | – | 21.3 µM (inactive)
CCCCCC/C(=N/O)c1ccccn1 | – | 11.6 µM (inactive)
CCOC(=O)Cc1csc(NC(=O)COc2ccc3c(c2)CCC3)n1 | – | 13.5 µM (inactive)
CSc1ccc(C(=O)C2CCCN(C(=O)c3ccc4c(c3)no[n+]4[O-])C2)cc1 (configuration not stated) | 5.39 | –
OC(CNCCc1ccc(C(F)(F)F)cc1)COc1cccc2ccccc12 (configuration not stated) | 5.04 | –
CC(C)c1nnc(NC(=O)c2c(O)c3cccc4c3n(c2=O)CCC4)s1 | 5.91 | –
Cc1ccc(NC(=S)C2=C(O)c3sccc3N(C)S2(=O)=O)cc1 | – | 22.3 µM (inactive)
COC(=O)c1ccc(CO/N=C/c2ccc(OC)cc2)o1 | 5.16 | –
COc1ccc(C(=O)CCNc2ccc(F)cc2)cc1 | 5.28 | –
Cc1cc(Nc2ccccc2)n(-c2nc3ccccc3[nH]2)n1 | 5.41 | –
CCN1CCN(Cc2cc(C(C)(C)C)c(O)c(C(C)(C)C)c2)CC1 | 5.46 | –
CCCOc1ccc(N2C(=O)CC(N3CCCC(C(=O)N4CCCC4)C3)C2=O)cc1 (configuration not stated) | – | 30.1 µM (inactive)
C#CCSc1nnc(-c2ccc([N+](=O)[O-])cc2)o1 | > 7.00 | –
O=C(CCN1C(=O)S/C(=C\c2ccc(F)cc2)C1=O)Nc1ccc(C(=O)O)c(O)c1 | 6.77 | –
CCOC(=O)C(=O)NC12CC3CC(CC(C3)C1)C2 | 5.19 | –
Clc1cccc(CNCCNCc2cccc(Cl)c2)c1 | – | 12.1 µM (inactive)
CC1=NN(C(=O)COc2ccccc2)C(O)(c2ccccc2)C1 (configuration not stated) | 5.87 | –
Cc1ccc(NC(=O)CNc2ccc(OC(C)C)cc2)cc1 | 5.39 | –

Structure (SMILES) | pIC50 | IC50
O=C(CC1CCCCC1)NCc1ccccc1 | 5.23 | –
c1ccc2[nH]c(NC3=NCCC3)nc2c1 | – | 19.2 µM (inactive)
O=[N+]([O-])c1ncccc1Oc1nc(-c2cccnc2)nc2ccccc12 | 6.14 | –
COc1ccc(OCCOC(=O)c2cccs2)cc1 | – | 27.6 µM (inactive)
CCOc1ccc(NCC(=O)c2ccc(C)cc2)cc1 | 5.31 | –
S=C1SCN(Cc2ccco2)CN1Cc1ccco1 | – | 14.1 µM (inactive)
Cc1ccc2nc3c(c(N)c2c1)CCN3c1ccccc1 | – | 28.4 µM (inactive)
Cc1[nH]c2ccccc2c1C(=O)COC(=O)c1ccc([N+](=O)[O-])s1 | 6.19 | –
CC(=O)c1ccc(OC(=O)c2ccc(-n3nc(C)cc3C)cc2)cc1 | 5.61 | –
CCC(C)c1ccc(OCCn2ccnc2)cc1 (configuration not stated) | – | 10.4 µM (inactive)
COC(=O)CN(C#N)c1nc(N(C)C)nc(N(C)C)n1 | – | 16.5 µM (inactive)
O=C(OCn1nnc2ccccc2c1=O)c1ccc(N2CCOCC2)c([N+](=O)[O-])c1 | – | 22.8 µM (inactive)
O=C(Nc1nc2ccccc2n1CCN1CCCC1)c1ccc(Cl)cc1 | – | 12.5 µM (inactive)
CCCOc1ccc(C(=O)NNC(=S)NC(=O)c2ccco2)cc1 | 5.42 | –
Cc1ccc(N2C(=O)CC(Sc3nccc(C)n3)C2=O)cc1 (configuration not stated) | – | 29.6 µM (inactive)
N/C(=N/OC(=O)c1ccccc1Cl)c1ncc([N+](=O)[O-])s1 | 5.50 | –
COc1ccc(/C=N/Nc2cc(C)nc3ccccc23)cc1 | 5.07 | –
O=C(COc1ccccc1)Nc1nnc(-c2ccc(Cl)cc2)o1 | – | 21.9 µM (inactive)
CC(=O)N(c1nnc(-c2ccc(C)cc2)s1)C1CCCC1 | – | 26.2 µM (inactive)
Cc1nnsc1C(=O)N/N=C/c1ccc2ccccc2c1O | 6.32 | –
CN1C(=O)CC(N2CCC(c3nc4ccccc4s3)CC2)C1=O (configuration not stated) | – | 32.6 µM (inactive)

Structure (SMILES) | pIC50 | IC50
O=C(COc1ccccc1)NC1CCCCC1 | 6.21 | –
CC1=NN(C(=O)c2csc(C)c2C)C(O)(C(F)(F)F)C1 (configuration not stated) | 6.40 | –
CCc1ccc(NC(=O)C(=O)NNC(=O)COc2cccc(OC)c2)cc1 | 5.60 | –
Cc1occc1-c1nnc(-c2cc([N+](=O)[O-])cc([N+](=O)[O-])c2)o1 | 5.81 | –
COc1cccc(CN2CCC(N(CCc3ccccc3)Cc3ccccc3)CC2)c1OC | – | 14.3 µM (inactive)
CC12CN3CC(C)(CN(C1)C3c1ccc([N+](=O)[O-])o1)C2 (configuration not stated) | 5.37 | –
C=C(C)C1Cc2c(C)nn(-c3nc(C)cc(C)n3)c2C1 (configuration not stated) | – | 11.6 µM (inactive)
Clc1cccc(-c2ccc(CNCc3ccccn3)o2)c1 | 5.16 | –
O=C(c1ccccc1)C1CN(Cc2ccccc2)CCC1(O)c1ccccc1 (configuration not stated) | 5.42 | –
S=C1SCN(Cc2cccnc2)CN1Cc1ccccc1 | – | 14.9 µM (inactive)
O=C(NCC(c1cccs1)N1CCOCC1)c1cc([N+](=O)[O-])cc([N+](=O)[O-])c1 (configuration not stated) | 5.53 | –
COc1ccc(C2(O)CCN(CC(=O)Nc3nc(-c4ccccc4)cs3)CC2)cc1 | – | 24.2 µM (inactive)
COC(=O)c1cc(-c2ccc(OC)cc2)on1 | 5.81 | –
Cc1ccc(OCCCCn2ccnc2)c([N+](=O)[O-])c1 | – | 28.5 µM (inactive)
CCOc1cc(CNC(C)(C)CO)cc(Br)c1OCc1ccc(Cl)cc1Cl | – | 10.8 µM (inactive)
O=C(O)c1ccc(-n2nc(C(F)(F)F)c3c2CCCC3)cc1 | – | 34.2 µM (inactive)
CSCCC(=O)N1CCCC(CNC(=O)c2ccc(-c3ccccc3)cc2)C1 (configuration not stated) | – | 17.9 µM (inactive)
O=C(N/N=C/c1cc(Br)c(Br)s1)c1ccncc1 | 5.50 | –
Cc1cc(NC(=O)c2sccc2C)n(-c2nc3ccccc3[nH]2)n1 | 5.06 | –
